From PubChem BioAssay AID2060902 (Molecular Pharmacology Branch, DTP, NCI, 2025)

Tested on: 485368-065-R3-J5-PDC spheroids with HUVEC/MSC, viability
Assay: Anticancer human tumor 485368-065-R3-J5-PDC patient-derived pancreatic carcinoma cell line growth inhibition [RAS]
Conditions: for IC50: curve of first compound; for viability, T/C: stronger effect = lower value
How it was run: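 Agents were tested in combination matrices in half-log decrements from a top concentration at or near clinical Cmax (10 microM if undetermined). Targets were multi-cell spheroids of tumour lines plus HUVEC and MSC stromal cells.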

[1] = second compound 0.00316 µM, first compound 0.0316 µM
[2] = second compound 0.00316 µM, first compound 0.1 µM
[3] = second compound 0.00316 µM, first compound 0.316 µM
[4] = second compound 0.00316 µM, first compound 1 µM
[5] = second compound 0.01 µM, first compound 0.0316 µM
[6] = second compound 0.01 µM, first compound 0.1 µM
[7] = second compound 0.01 µM, first compound 0.316 µM
[8] = second compound 0.01 µM, first compound 1 µM
[9] = second compound 0.0316 µM, first compound 0.0316 µM
[10] = second compound 0.0316 µM, first compound 0.1 µM
[11] = second compound 0.0316 µM, first compound 0.316 µM
[12] = second compound 0.0316 µM, first compound 1 µM
[13] = second compound 0.1 µM, first compound 0.0316 µM
[14] = second compound 0.1 µM, first compound 0.1 µM
[15] = second compound 0.1 µM, first compound 0.316 µM
[16] = second compound 0.1 µM, first compound 1 µM
[17] = second compound 0.316 µM, first compound 0.0316 µM
[18] = second compound 0.316 µM, first compound 0.1 µM
[19] = second compound 0.316 µM, first compound 0.316 µM
[20] = second compound 0.316 µM, first compound 1 µM
[21] = second compound 1 µM, first compound 0.0316 µM
[22] = second compound 1 µM, first compound 0.1 µM
[23] = second compound 1 µM, first compound 0.316 µM
[24] = second compound 1 µM, first compound 1 µM
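Note: spheroids exposed to agents for seven days before readout.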

For NC1c2ccccc2OC12CCN(c1cnc3c(N4CCCc5ncccc54)n[nH]c3n1)CC2 (centres undefined) + C=CC(=O)N1CCN(c2nc(OCC3CCCN3C)nc3c(F)c(-c4nc(N)cc(C)c4C(F)(F)F)c(Cl)cc23)C(C)C1, the IC50 (second compound 0.00316 µM) was > 10000 nM, the IC50 (second compound 0.01 µM) was > 10000 nM and the IC50 (second compound 0.0316 µM) was > 10000 nM. The IC50 (second compound 0.1 µM) was > 10000 nM, the IC50 (second compound 0.316 µM) was > 10000 nM and the IC50 (second compound 1 µM) was > 10000 nM. The viability, T/C [1] was 83.2%, the viability, T/C [2] was 60.2% and the viability, T/C [3] was 78.5%. It also gave a viability, T/C [4] of 72.2%, a viability, T/C (second compound 0.00316 µM, first compound 3.16 µM) of 67% and a viability, T/C (second compound 0.00316 µM, first compound 10 µM) of 69.8%. The viability, T/C [5] was 87.7%, the viability, T/C [6] was 76.8% and the viability, T/C [7] was 67.5%. The viability, T/C [8] was 64.4%, the viability, T/C (second compound 0.01 µM, first compound 3.16 µM) was 77% and the viability, T/C (second compound 0.01 µM, first compound 10 µM) was 65.7%. The viability, T/C [9] was 81.2%, the viability, T/C [10] was 88.2% and the viability, T/C [11] was 64.1%. The viability, T/C [12] was 67.4%, the viability, T/C (second compound 0.0316 µM, first compound 3.16 µM) was 72.5% and the viability, T/C (second compound 0.0316 µM, first compound 10 µM) was 69.8%. For the same compound, the viability, T/C [13] was 82.4%, the viability, T/C [14] was 75.8% and the viability, T/C [15] was 61.1%. It also gave a viability, T/C [16] of 74.9%, a viability, T/C (second compound 0.1 µM, first compound 3.16 µM) of 78% and a viability, T/C (second compound 0.1 µM, first compound 10 µM) of 74.6%. The viability, T/C [17] was 72.1%, the viability, T/C [18] was 79.2% and the viability, T/C [19] was 75.1%. For the same compound, the viability, T/C [20] was 64.1%, the viability, T/C (second compound 0.316 µM, first compound 3.16 µM) was 73.1% and the viability, T/C (second compound 0.316 µM, first compound 10 µM) was 60.4%. The viability, T/C [21] was 84.7%, the viability, T/C [22] was 77.5% and the viability, T/C [23] was 72.9%. The viability, T/C [24] was 60.6%, the viability, T/C (second compound 1 µM, first compound 3.16 µM) was 60.7% and the viability, T/C (second compound 1 µM, first compound 10 µM) was 54.9%.
With Nc1ccn(C2OC(CO)C(O)C2(F)F)c(=O)n1 (centres undefined) + C=CC(=O)N1CCN(c2nc(OCC3CCCN3C)nc3c(F)c(-c4nc(N)cc(C)c4C(F)(F)F)c(Cl)cc23)C(C)C1 the IC50 (second compound 0.00316 µM) was 6.42 nM, the IC50 (second compound 0.01 µM) was 6.43 nM and the IC50 (second compound 0.0316 µM) was 6.5 nM. For the same compound, the IC50 (second compound 0.1 µM) was 6.18 nM, the IC50 (second compound 0.316 µM) was 6.26 nM and the IC50 (second compound 1 µM) was 6.1 nM. The viability, T/C (second compound 0.00316 µM, first compound 0.00316 µM) was 107%, the viability, T/C (second compound 0.00316 µM, first compound 0.01 µM) was 14.7% and the viability, T/C [1] was 10.7%. It also gave a viability, T/C [2] of 9.52%, a viability, T/C [3] of 8.08% and a viability, T/C [4] of 10.4%. The viability, T/C (second compound 0.01 µM, first compound 0.00316 µM) was 104%, the viability, T/C (second compound 0.01 µM, first compound 0.01 µM) was 16.8% and the viability, T/C [5] was 9.83%. For the same compound, the viability, T/C [6] was 7.76%, the viability, T/C [7] was 10.4% and the viability, T/C [8] was 9.94%. For the same compound, the viability, T/C (second compound 0.0316 µM, first compound 0.00316 µM) was 103%, the viability, T/C (second compound 0.0316 µM, first compound 0.01 µM) was 18.4% and the viability, T/C [9] was 12.1%. The viability, T/C [10] was 9.22%, the viability, T/C [11] was 9.83% and the viability, T/C [12] was 10.7%. The viability, T/C (second compound 0.1 µM, first compound 0.00316 µM) was 97%, the viability, T/C (second compound 0.1 µM, first compound 0.01 µM) was 16.3% and the viability, T/C [13] was 9.86%. It also gave a viability, T/C [14] of 7.88%, a viability, T/C [15] of 9.19% and a viability, T/C [16] of 9.27%. The viability, T/C (second compound 0.316 µM, first compound 0.00316 µM) was 101%, the viability, T/C (second compound 0.316 µM, first compound 0.01 µM) was 15.3% and the viability, T/C [17] was 8.44%. For the same compound, the viability, T/C [18] was 8.63%, the viability, T/C [19] was 9.97% and the viability, T/C [20] was 11%. It also gave a viability, T/C (second compound 1 µM, first compound 0.00316 µM) of 89.7%, a viability, T/C (second compound 1 µM, first compound 0.01 µM) of 20.2% and a viability, T/C [21] of 11.6%. For the same compound, the viability, T/C [22] was 9.69%, the viability, T/C [23] was 11.4% and the viability, T/C [24] was 11.8%.
